The text below walks through data of US20070299062A1 (The Procter & Gamble Company, priority 2006, published 2007).

One experiment deals with MCH-1R (UniProt Q99705). Nature of the experiment: MCH-1R competition binding assay. The method, then: In vitro binding and function assays are performed on membranes derived from cells or tissues expressing endogenous MCH1R. Competition binding assays are performed to identify high affinity compounds. Briefly, either radiolabeled or europium labeled MCH with varying concentrations of competitor compound which are incubated with membranes expressing the receptor. Rat brain membrane or cell lines, including but not limited to human Kelly neuroblastoma cells, A-431 epidermoid cells, and rat PC-12 cells are known to express endogenous MCH1R and are used in the assay. Binding is allowed to proceed until equilibrium is reached then bound labeled MCH is separated from free MCH by capturing membranes onto a filter. The filters are washed to remove loosely associated MCH and labeled MCH is quantified. Data is analyzed and IC50 and Ki are calculated to determine compound affinity.

In another experiment the target is T1, 5-HT2c receptor (Homo sapiens, UniProt P28335).
T1 construct: purchased Perkin-Elmer or Euroscreen (named only as possible suppliers)
T1 sequence (P28335 33-458): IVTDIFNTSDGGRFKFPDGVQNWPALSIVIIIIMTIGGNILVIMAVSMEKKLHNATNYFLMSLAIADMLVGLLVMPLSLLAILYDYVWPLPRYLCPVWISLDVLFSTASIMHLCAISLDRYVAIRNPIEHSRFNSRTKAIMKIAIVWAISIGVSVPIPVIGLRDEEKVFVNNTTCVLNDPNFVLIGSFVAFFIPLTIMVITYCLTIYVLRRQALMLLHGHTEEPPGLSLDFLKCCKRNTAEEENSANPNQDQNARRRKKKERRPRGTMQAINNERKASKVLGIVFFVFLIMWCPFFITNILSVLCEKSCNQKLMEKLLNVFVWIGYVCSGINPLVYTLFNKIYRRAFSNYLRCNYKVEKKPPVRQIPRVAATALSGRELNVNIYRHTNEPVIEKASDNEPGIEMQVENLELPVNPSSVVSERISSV
Briefly: 5-HT2c receptor binding assay (3H-mesulergine competition). To be noted: for Ki: 1 nM 3H-mesulergine, read-out: Ki (nM) binding data 5-HT2C. The method, then:
MCH antagonist compounds are evaluated for binding to the serotonin 5-HT2c receptor to determine receptor selectivity. Binding activity is assessed using a competitive assay with ^3H-mesulergine (Perkin Elmer), a 5-HT2c selective ligand, on membrane containing the 5-HT2c receptor. Briefly, 1 nM ^3H-mesulergine and varying concentrations of the compound are incubated with 5-HT2c receptor membranes, following an incubation period, the membranes are washed and ^3H-mesulergine bound to membranes is measured in a liquid scintillation counter. The amount of bound ^3H-mesulergine at the varying concentration of competitor compound is used to derive the affinity (Ki) of the compound for the 5-HT2c receptor. 5-HT2c receptor containing membranes are readily available from several companies including Perkin-Elmer and Euroscreen.

pKi: −log10 of the molar value. Read-outs that look alike come from different tables or passages of the source.

As for `CS(=O)(=O)N1CCN(Cc2ccc3c(c2)CC[C@H](n2cnc4cc(-c5ccnc(Cl)c5)sc4c2=O)C3)CC1`, the values for the inhibition constant (Ki) at MCH-1R and on 5-HT2c receptor were 157 nM and greater than 100000 nM, respectively.

As to `COc1ncccc1-c1cc2ncn([C@H]3CCc4cc(CN5CCN(S(C)(=O)=O)CC5)ccc4C3)c(=O)c2s1`, the Ki (as a rule, the equilibrium dissociation constant of an inhibitor or competing ligand from its target) on MCH-1R was 373 nM; at 5-HT2c receptor it was greater than 100000 nM.

On to `CS(=O)(=O)N1CCN(Cc2ccc3c(c2)CC[C@H](n2cnc4cc(-c5ccc(Cl)cc5Cl)sc4c2=O)C3)CC1`, for which the Ki on MCH-1R was 107 nM; at 5-HT2c receptor, greater than 100000 nM.

Turning to `CS(=O)(=O)N1CCN(Cc2ccc3c(c2)CC[C@H](n2cnc4cc(-c5ccc(F)cc5F)sc4c2=O)C3)CC1`, the figures for the Ki at MCH-1R and at 5-HT2c receptor were 7.6 nM and greater than 100000 nM, respectively.

As for `CS(=O)(=O)N1CCN(Cc2ccc3c(c2)CC[C@H](n2cnc4cc(-c5cccc(C#N)c5)sc4c2=O)C3)CC1`, the figures for the Ki at MCH-1R and at 5-HT2c receptor were 310 nM and greater than 100000 nM, respectively.

As for `CS(=O)(=O)N1CCN(Cc2ccc3c(c2)CC[C@H](n2cnc4cc(-c5ccc(Cl)c(Cl)c5)sc4c2=O)C3)CC1`, the figures for the Ki at MCH-1R and at 5-HT2c receptor were 142 nM and greater than 100000 nM, respectively.

On to `CS(=O)(=O)N1CCN(Cc2ccc3c(c2)CC[C@H](n2cnc4cc(-c5ccc(F)c(F)c5)sc4c2=O)C3)CC1`, for which the inhibition constant Ki on MCH-1R is 39.3 nM; at 5-HT2c receptor, greater than 100000 nM.

As to `CS(=O)(=O)N1CCN(Cc2ccc3c(c2)CC[C@H](n2cnc4cc(-c5cc(F)cc(F)c5)sc4c2=O)C3)CC1`, the Ki at MCH-1R was 117 nM; at 5-HT2c receptor it was greater than 100000 nM.

Compound `CS(=O)(=O)N1CCN(Cc2ccc3c(c2)CC[C@H](n2cnc4cc(-c5cncc(Cl)c5)sc4c2=O)C3)CC1` displayed a Ki on MCH-1R of 21 nM. Besides, at 5-HT2c receptor, the pKi (as a rule, the Ki on a negative log10 scale, so that one unit is a factor of ten) is less than 4.00.

At MCH-1R, `CS(=O)(=O)N1CCN(Cc2ccc3c(c2)CC[C@H](n2cnc4cc(-c5cncc(F)c5)sc4c2=O)C3)CC1` showed an inhibition constant (Ki) of 13.4 nM. Besides, on 5-HT2c receptor, the pKi is less than 4.00.

Consider `COc1cncc(-c2cc3ncn([C@H]4CCc5cc(CN6CCN(S(C)(=O)=O)CC6)ccc5C4)c(=O)c3s2)c1`, for which the Ki on MCH-1R was determined as 17.9 nM. This compound had a pKi at 5-HT2c receptor of less than 4.00.

In the case of `CS(=O)(=O)N1CCN(Cc2ccc3c(c2)CC[C@H](n2cnc4cc(-c5ccoc5)sc4c2=O)C3)CC1`, the inhibitory constant (Ki) was 733 nM on MCH-1R and greater than 100000 nM at 5-HT2c receptor.

In the case of `CS(=O)(=O)N1CCN(Cc2ccc3c(c2)CC[C@H](n2cnc4cc(-c5cccnc5)sc4c2=O)C3)CC1`, the figures for the Ki on MCH-1R and at 5-HT2c receptor were 752 nM and greater than 100000 nM, respectively.

As for `CS(=O)(=O)N1CCN(Cc2ccc3c(c2)CC[C@H](n2cnc4cc(-c5cccs5)sc4c2=O)C3)CC1`, the Ki on MCH-1R is 122 nM; on 5-HT2c receptor it was greater than 100000 nM.

As for `CS(=O)(=O)N1CCN(Cc2ccc3c(c2)CC[C@H](n2cnc4cc(-c5ccsc5)sc4c2=O)C3)CC1`, the Ki at MCH-1R is 60 nM; at 5-HT2c receptor it was greater than 100000 nM.

With `CN(C)Cc1ccc2c(c1)CC[C@H](n1cnc3cc(-c4ccc(Cl)cc4)sc3c1=O)C2` [6-(4-Chlorophenyl)-3-((S)-6-dimethylaminomethyl-1,2,3,4-tetrahydronapthealen-2-yl)thieno[3,2-d]pyrimidin-4(3H)-one], the Ki on MCH-1R turned out to be 7.4 nM; at 5-HT2c receptor it was 3170 nM.

As to `CNCc1ccc2c(c1)CC[C@H](n1cnc3cc(-c4ccc(Cl)cc4)sc3c1=O)C2` [6-(4-Chlorophenyl)-3-((S)-6-methylaminomethyl-1,2,3,4-tetrahydronapthealen-2-yl)thieno[3,2-d]pyrimidin-4(3H)-one], the Ki at MCH-1R is 0.4 nM; on 5-HT2c receptor it was 2140 nM.

On to `CN(CCS(C)(=O)=O)Cc1ccc2c(c1)CC[C@H](n1cnc3cc(-c4ccc(Cl)cc4)sc3c1=O)C2` [6-(4-Chlorophenyl)-3-((S)-6-{[2-methanesulfonylethyl)methylamino]methyl}-1,2,3,4-tetrahydronapthealen-2-yl)thieno[3,2-d]pyrimidin-4(3H)-one], for which the Ki on MCH-1R was 15.8 nM; on 5-HT2c receptor it was greater than 100000 nM.

As for `CS(=O)(=O)C1CCN(Cc2ccc3c(c2)CC[C@H](n2cnc4cc(-c5ccc(Cl)cc5)sc4c2=O)C3)CC1` [6-(4-Chlorophenyl)-3-[(S)-6-(4-methanesulfonylpiperidin-1-ylmethyl)-1,2,3,4-tetrahydronapthealen-2-yl}thieno[3,2-d]pyrimidin-4(3H)-one], the figures for the Ki at MCH-1R and on 5-HT2c receptor were 8.2 nM and greater than 100000 nM, respectively.

For `O=c1c2sc(-c3ccc(Cl)cc3)cc2ncn1[C@H]1CCc2cc(CNC(CO)CO)ccc2C1` [6-(4-Chlorophenyl)-3-{(S)-6-[(2-hydroxy-1-hydroxymethylethylamino)methyl]-1,2,3,4-tetrahydronapthealen-2-yl}thieno[3,2-d]pyrimidin-4(3H)-one], the inhibitory constant (Ki) at MCH-1R was 10.7 nM; at 5-HT2c receptor it was greater than 100000 nM.

Regarding `CS(=O)(=O)CCNCc1ccc2c(c1)CC[C@H](n1cnc3cc(-c4ccc(Cl)cc4)sc3c1=O)C2` [6-(4-Chlorophenyl)-3-{(S)-6-[(2-methanesulfonyl-ethylamino)methyl]-1,2,3,4-tetrahydronapthealen-2-yl}thieno[3,2-d]pyrimidin-4(3H)-one], the Ki on MCH-1R was 22.6 nM; on 5-HT2c receptor, greater than 100000 nM.

`O=c1c2sc(-c3ccc(Cl)cc3)cc2ncn1[C@H]1CCc2cc(CN3CC[C@H](O)C3)ccc2C1` [6-(4-Chlorophenyl)-3-{(S)-6-[((S)-3-hydroxypyrrolidin-1-yl)methyl]-1,2,3,4-tetrahydronaphthalen-2-yl}thieno[3,2-d]pyrimidin-4(3H)-one]: the Ki at MCH-1R turned out to be 24 nM; on 5-HT2c receptor, 9550 nM.

Consider `C[C@H](O)CNCc1ccc2c(c1)CC[C@H](n1cnc3cc(-c4ccc(Cl)cc4)sc3c1=O)C2` [6-(4-Chlorophenyl)-3-{(S)-6-[(S)-2-hydroxypropylaminomethyl]-1,2,3,4-tetrahydronapthealen-2-yl}thieno[3,2-d]pyrimidin-4(3H)-one], for which the inhibition constant (Ki) on MCH-1R is 25 nM; at 5-HT2c receptor, 3080 nM.

`CC(=O)N1CCN(Cc2ccc3c(c2)CC[C@H](n2cnc4cc(-c5ccc(Cl)cc5)sc4c2=O)C3)CC1` [(S)-3-(6-((4-Acetylpiperazin-1-yl)methyl)-1,2,3,4-tetrahydronapthalen-2-yl)-6-(4-chlorophenyl)thieno[3,2-d]pyrimidine-4(3H)-one]: the Ki at MCH-1R was 35 nM; at 5-HT2c receptor, 14600 nM.

In the case of `CC(=O)N1CCN(Cc2ccc3c(c2)CC[C@H](n2cnc4cc(-c5ccc(C#N)cc5)sc4c2=O)C3)CC1` [(S)-3-[6-(4-Acetylpiperazin-1-ymethyl)-1,2,3,4-tetrahydronap] [(S)-3-[6-(4-Acetylpiperazin-1-ymethyl)-1,2,3,4-tetrahydronapthalen-2-yl]-6-(4-cyanophenyl)thieno[3,2-d]pyrimidin-4(3H)-one], the Ki at MCH-1R was 34 nM.

As for `CC(=O)N1CCN(Cc2ccc3c(c2)CC[C@H](n2cnc4cc(-c5ccc(F)cc5F)sc4c2=O)C3)CC1` [(S)-3-[6-(4-Acetylpiperazin-1-ymethyl)-1,2,3,4-tetrahydronapthalen-2-yl]-6-(2,4-difluorophenyl)thieno[3,2-d]pyrimidin-4(3H)-one], the Ki was 8.4 nM on MCH-1R and greater than 100000 nM on 5-HT2c receptor.

Consider `CC(=O)N1CCN(Cc2ccc3c(c2)CC[C@H](n2cnc4cc(-c5ccc(Cl)cc5Cl)sc4c2=O)C3)CC1` [(S)-3-[6-(4-Acetylpiperazin-1-ymethyl)-1,2,3,4-tetrahydronapthalen-2-yl]-6-(2,4dichlorophenyl)thieno[3,2-d]pyrimidin-4(3H)-one], for which the figures for the inhibition constant Ki on MCH-1R and at 5-HT2c receptor were 24.7 nM and 2370 nM, respectively.

`CC(=O)N1CCN(Cc2ccc3c(c2)CC[C@H](n2cnc4cc(-c5ccnc(Cl)c5)sc4c2=O)C3)CC1` [(S)-3-[6-(4-Acetylpiperazin-1-ymethyl)-1,2,3,4-tetrahydronapthalen-2-yl]-6-(2-chloropyridin-4-yl)thieno[3,2-d]pyrimidin-4(3H)-one]: the Ki at MCH-1R was 496 nM; at 5-HT2c receptor it was greater than 100000 nM.

With `CC(=O)N1CCN(Cc2ccc3c(c2)CC[C@H](n2cnc4cc(-c5cccnc5F)sc4c2=O)C3)CC1` [(S)-3-[6-(4-Acetylpiperazin-1-ymethyl)-1,2,3,4-tetrahydronapthalen-2-yl]-6-(2-fluoropyridin-3-yl)thieno[3,2-d]pyrimidin-4(3H)-one], the inhibitory constant (Ki) at MCH-1R was 813 nM; at 5-HT2c receptor, greater than 100000 nM.

Regarding `CC(=O)N1CCN(Cc2ccc3c(c2)CC[C@H](n2cnc4cc(-c5ccc(C#N)cc5)sc4c2=O)C3)CC1` [(S)-3-[6-(4-Acetylpiperazin-1-ymethyl)-1,2,3,4-tetrahydronapthalen-2-yl]-6-(4-cyanophenyl)thieno[3,2-d]pyrimidin-4(3H)-one], on 5-HT2c receptor, the Ki is greater than 100000 nM.
